The conditions of data set [1]: cited from earlier work.
Data set [2] can be described thus: Blood retention time measurement. To be noted: 500 μg/kg s.c., Wistar rats, n = 5; 0.5-96 h; GLP-1 (7–37) ELISA. For orientation: An ELISA detects its analyte on a solid surface through an enzyme-linked reagent.
For the next data set, the target named is T1, DPP IV enzyme (Homo sapiens, UniProt P27487).
T1 construct: purchased Sigma-Aldrich
As to the kind of experiment: Stability against DPP IV proteolysis with or without HSA. The data set is classed as in vitro ADME.

For data set [3], the system named is Wistar rats. The data set is described as follows: Toxicity study of compound 24 in Wistar rats (blood biochemistry, haematology). The data set is classed as in vivo. To be noted: Wistar rats and Kunming mice, GLP guideline of China. The procedure:
Wistar rats (n = 8) and Kunming mice (n = 30) were employed in this study to investigate the acute toxicity of compound 24. Compound 24 was intraperitoneally administered with three doses of 5, 15 and 50 mg/kg/2 days for 30 days. Controls received a similar volume of sodium dihydrogen phosphate. At the end of the experimental period, overnight fasted animals were sacrificed by cervical decapitation under light ether anesthesia and blood was collected, serum was separated by centrifuging at 3,000 rpm for 10 min. The serum was used for the assay of the biochemical parameters using Chemistry Analyzer […] (Vital, Netherlands).

Another data set deals with T2, GLP-1 receptor (GLP-1R) (Rattus norvegicus, UniProt P32301).
T2 construct: endogenous in cells; host or cells: rat INS-1 cells
T2 sequence (P32301 22-463): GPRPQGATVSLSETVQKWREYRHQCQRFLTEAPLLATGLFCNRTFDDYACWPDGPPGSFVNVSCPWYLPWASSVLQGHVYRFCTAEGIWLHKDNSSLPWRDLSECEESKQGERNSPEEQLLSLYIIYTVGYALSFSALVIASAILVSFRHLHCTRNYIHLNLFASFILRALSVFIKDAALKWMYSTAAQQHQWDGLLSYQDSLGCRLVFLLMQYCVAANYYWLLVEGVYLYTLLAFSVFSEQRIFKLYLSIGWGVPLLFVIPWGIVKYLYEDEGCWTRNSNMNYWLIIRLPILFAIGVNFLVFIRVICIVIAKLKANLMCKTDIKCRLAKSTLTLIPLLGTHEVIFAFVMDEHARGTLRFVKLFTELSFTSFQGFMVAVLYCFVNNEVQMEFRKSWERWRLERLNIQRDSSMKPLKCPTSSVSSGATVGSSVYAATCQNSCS
As to the kind of experiment: GLP-1 receptor binding assay (cellular ELISA). In short, it runs like this: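 Cells were fixed with 4% paraformaldehyde, quenched with 2% glycine (pH 7.5), then incubated with peptides for 2 h at 37 °C, washed and blocked with 5% BSA. Absorbance was read at 450 nm. Kd was fitted from peptide concentration versus absorbance.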

Data set [4] deals with Wistar rats. As to the kind of experiment: Single-dose glucoregulatory assay (glucose tolerance test). The data set is classed as in vivo. To be noted: calculated from the single dose glucose tolerance test in rats. The procedure: In this assay, the derivatives were administered once, and the blood glucose levels were monitored over 120 h. It was presumed that the apparent half-lives of the derivatives could be obtained by this single-dose glucose tolerance test, which would be beneficial for the determination of the administration frequency in future long-term glucose tolerance tests. Each derivative (300 μg/kg body weight) was subcutaneously injected into fasting male Wistar rats (n = 7 per group) 30 min prior to glucose administration. GLP-1 and saline were injected into the control animals. Rats were given 2 g glucose/kg body weight via intraperitoneal injections. Blood was drawn from the tail vein, and glucose levels were measured using a glucometer 30 min after glucose administration. Chronic glucose injections (2 g/kg body weight) were administered 30 min prior to each blood glucose measurement time point during the 120-h experimental period.

SMILES strings stand for the structures.

T1 sequence (P27487 whole entry, species assumed): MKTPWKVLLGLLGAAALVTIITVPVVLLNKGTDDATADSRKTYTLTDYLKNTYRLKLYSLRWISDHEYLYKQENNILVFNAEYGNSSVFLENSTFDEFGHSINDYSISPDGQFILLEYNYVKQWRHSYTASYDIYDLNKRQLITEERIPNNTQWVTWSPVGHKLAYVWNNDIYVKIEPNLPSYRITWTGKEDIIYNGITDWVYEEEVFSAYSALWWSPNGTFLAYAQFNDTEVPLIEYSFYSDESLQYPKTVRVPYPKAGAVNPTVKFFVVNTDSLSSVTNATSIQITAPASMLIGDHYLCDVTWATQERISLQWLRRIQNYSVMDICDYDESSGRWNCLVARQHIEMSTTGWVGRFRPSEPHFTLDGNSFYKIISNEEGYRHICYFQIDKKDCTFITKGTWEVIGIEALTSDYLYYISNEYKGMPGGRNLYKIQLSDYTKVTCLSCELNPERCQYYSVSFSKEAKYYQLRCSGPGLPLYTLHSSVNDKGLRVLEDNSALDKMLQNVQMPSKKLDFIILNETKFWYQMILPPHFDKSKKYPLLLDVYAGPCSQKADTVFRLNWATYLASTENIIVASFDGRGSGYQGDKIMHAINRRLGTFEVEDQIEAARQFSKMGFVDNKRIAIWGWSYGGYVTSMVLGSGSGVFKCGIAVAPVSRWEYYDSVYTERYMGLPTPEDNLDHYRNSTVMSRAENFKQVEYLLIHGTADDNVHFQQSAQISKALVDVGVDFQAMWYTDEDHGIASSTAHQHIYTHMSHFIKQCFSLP
Protocol for DPP IV enzyme: DPP IV enzyme (0.1 mg/ml) was dissolved in 25 mM potassium phosphate buffer containing 25 mM potassium chloride and 5 mM magnesium chloride, pH 7.0.

Consider `CC[C@H](C)[C@H](NC(=O)[C@H](Cc1ccccc1)NC(=O)[C@H](CCC(=O)O)NC(=O)[C@H](CCCCN)NC(=O)[C@H](C)NC(=O)[C@H](C)NC(=O)[C@H](CCC(N)=O)NC(=O)CNC(=O)[C@H](CCC(=O)O)NC(=O)[C@H](CC(C)C)NC(=O)[C@H](Cc1ccc(O)cc1)NC(=O)[C@H](CO)NC(=O)[C@H](CO)NC(=O)[C@@H](NC(=O)[C@H](CC(=O)O)NC(=O)[C@H](CO)NC(=O)[C@@H](NC(=O)[C@H](Cc1ccccc1)NC(=O)[C@@H](NC(=O)CNC(=O)[C@H](CCC(=O)O)NC(=O)[C@H](C)NC(=O)[C@@H](N)Cc1c[nH]cn1)[C@@H](C)O)[C@@H](C)O)C(C)C)C(=O)N[C@@H](C)C(=O)N[C@@H](Cc1c[nH]c2ccccc12)C(=O)N[C@@H](CC(C)C)C(=O)N[C@H](C(=O)N[C@@H](CCCCN)C(=O)NCC(=O)N[C@@H](CCCN=C(N)N)C(=O)NCC(=O)O)C(C)C` [GLP-1, glucagon-like peptide-1], for which, in data set [1] (degradation by DPP-IV, reference not given), the “stability (half-life) of native GLP-1” value was 3 to 5 min. The renal clearance result in data set [1] (in vivo) is on record as “less than 10 min”.
The Kd is a measure of binding affinity in units of concentration. As for `CC[C@H](C)[C@H](NC(=O)[C@H](Cc1ccccc1)NC(=O)[C@H](CCC(=O)NCCCCCCCCCCCC(=O)O)NC(=O)[C@H](CCCCN)NC(=O)[C@H](C)NC(=O)[C@H](C)NC(=O)[C@H](CCC(N)=O)NC(=O)CNC(=O)[C@H](CCC(=O)O)NC(=O)[C@H](CC(C)C)NC(=O)[C@H](Cc1ccc(O)cc1)NC(=O)[C@H](CO)NC(=O)[C@H](CO)NC(=O)[C@@H](NC(=O)[C@H](CC(=O)O)NC(=O)[C@H](CO)NC(=O)[C@@H](NC(=O)[C@H](Cc1ccccc1)NC(=O)[C@@H](NC(=O)CNC(=O)[C@H](CCC(=O)O)NC(=O)[C@H](C)NC(=O)[C@@H](N)Cc1c[nH]cn1)[C@@H](C)O)[C@@H](C)O)C(C)C)C(=O)N[C@@H](C)C(=O)N[C@@H](Cc1c[nH]c2ccccc12)C(=O)N[C@@H](CC(C)C)C(=O)N[C@H](C(=O)N[C@@H](CCCCN)C(=O)NCC(=O)N[C@@H](CCCNC(=N)N)C(=O)NCC(=O)O)C(C)C` [compound 24], the “increase of circulating amount (AUC GLP-1 (7-37)) compared with native GLP-1” value in data set [2] was determined as 2.7 fold. On DPP IV enzyme (DPP IV 0.1 mg/ml, pH 7.0, in the presence of human serum albumin (2%), peptide 1 mg/ml, 37 °C, GLP-1 (7–37) ELISA), the “detectability of full-length peptide at 24 h” value was “still detectable at 24 h”. In addition, at DPP IV enzyme (DPP IV proteolysis solution, 37 °C, 0-24 h, GLP-1 (7–37) ELISA, P < 0.01), the “AUC0–24 h, amount of undigested GLP-1 fragments compared with wild-type GLP-1” value is given as “approximately 3.5 fold”. On DPP IV enzyme (DPP IV proteolysis solution, 37 °C, GLP-1 (7–37) ELISA, P < 0.01), the “AUCGLP-1(7–37) in proteolysis solution compared to native GLP-1” value is “significantly increased”. Also, the “degradation rate against DPP IV compared with compounds 6 and 21, respectively” value on DPP IV enzyme (DPP IV proteolysis, same carbon chain length without free carboxyl group as comparator) is on record as “significantly lower degradation rates”. For the same compound, the “acute toxicity and blood biochemistry tests” value with Wistar rats [3] was “no toxicity was observed”. The compound also came in with a Kd at GLP-1 receptor (GLP-1R) of 17.6 ± 1.76 nM. Besides, the observed half-life in the data set on Wistar rats [4] is listed as 9.6 h.

Source of the values: publication PMC4676015, “Variant fatty acid-like molecules Conjugation, novel approaches for extending the stability of therapeutic peptides” (Scientific Reports, 2015).
